# Data taken from patent US8450317B2, “CXCR3 receptor antagonists” (Boehringer Ingelheim International GmbH, priority 2009, dated 2013).
# Target: CXCR3 (Macaca fascicularis, UniProt A0A2K5UV19)
# Test: functional cellular assay measuring calcium flux in CXCR3 transfected cells (block of CXCR3/IP-10 interaction)
# Format: cell-based, Cyno
# Conditions: not given
# Experimental: Compounds are assessed for the ability to block the interaction of CXCR3 and IP-10 in a functional cellular assay measuring calcium flux in CXCR3 transfected cells.
# Cyno-CHO cells, stably expressing recombinant CXCR3 and G-alpha-16 are grown in F12 medium (Mediatech #45000-360) supplemented with 10% (V/V) FBS (Mediatech #35-01500), 1% Geneticin (Invitrogen #10131-027) and 0.2% Zeocin (Invitrogen #R250-05). The cells are spun down and re-suspended in growth media to a concentration of […]. 25 microL of cell suspension is added to each well of a BD-384-well TC treated plate, providing 12,000 cells/well. The plate is incubated at 37° C./5% CO2 overnight. On the day of the assay, the plates are removed, the media is flicked out and 25 microL of Ca-4 dye in assay buffer (HBSS, 10 mM HEPES ph 7.4), containing 2 mM probenacid is added to each well. The cell assay plates are then incubated at 37° C./5% CO2 for one hour.
# Test compounds are dissolved in DMSO and diluted to 1.045 mM in DMSO. Just prior to assay, 2.75 microL of appropriately diluted test compound are added to each well of a 384 well plate containing 45 microL of HBSS buffer. After mixing, 5 microL of diluted compound are added to each well of the cell assay plate for a final assay concentration of 10 microM. The plate is incubated at room temperature for 15 min. 10 microL of IP-10 stock solution in HBSS (4× EC80 concentration) are added to each well of the cell assay plate except those cells reserved as blank wells containing buffer only. Intracellular calcium flux is recorded on the HAMAMTSU FDSS6000, using excitation at 480 nm and emission at 540 nm. Data are analyzed using Activity Base software.
# In general, the preferred potency range (IC50) of compounds in the above assay is between 1 nM to 3 μM, and the most preferred potency range is 1 nM to 200 nM.
# CXCR3, sequence (A0A2K5UV19 entry or part of it): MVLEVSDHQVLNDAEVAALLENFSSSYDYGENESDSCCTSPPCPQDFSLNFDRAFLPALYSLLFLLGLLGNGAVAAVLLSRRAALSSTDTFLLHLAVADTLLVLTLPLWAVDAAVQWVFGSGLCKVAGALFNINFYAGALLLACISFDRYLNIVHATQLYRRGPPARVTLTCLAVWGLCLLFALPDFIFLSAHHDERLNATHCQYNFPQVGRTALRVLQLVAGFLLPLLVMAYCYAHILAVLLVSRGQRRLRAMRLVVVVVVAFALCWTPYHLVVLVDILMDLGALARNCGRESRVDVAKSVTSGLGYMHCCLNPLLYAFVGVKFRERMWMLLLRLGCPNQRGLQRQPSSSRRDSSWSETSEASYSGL
row,Structure (SMILES),IC50 [nM]
1,"COc1ncc(-c2ccccc2N2CC3CCC(C2)N3C(=O)Cn2ccc3cccnc32)cn1 [1-{3-[2-(2-Methoxy-pyrimidin-5-yl)-phenyl]-3,8-diaza-bicyclo[3.2.1]oct-8-yl}-2-pyrrolo[2,3-b]pyridin-1-yl-ethanone]",7

# Same assay, conditions: IP-10 induced intracellular calcium flux; Cyno-CHO cells stably expressing recombinant CXCR3 and G-alpha-16; IP-10 at EC80; read-out: IC50
row,IC50 [nM],Structure (SMILES)
1,8,"CC1CN(c2ccc(F)cc2-c2cnc(N3CCC(S(C)(=O)=O)CC3)nc2)CCN1C(=O)Cn1ccc2ccncc21 (stereo not shown) [1-[4-(4-fluoro-2-{2-[4-(methylsulfonyl)piperidin-1-yl]pyrimidin-5-yl}phenyl)-2-methylpiperazin-1-yl]-2-(1H-pyrrolo[2,3-c]pyridin-1-yl)ethanone]"
2,7,"Cc1cc(C)n(CC(=O)N2CCN(c3ccc(C(F)(F)F)cc3-c3cnc(N4CCC(S(C)(=O)=O)CC4)nc3)CC2C)n1 (stereo not shown) [2-(3,5-dimethyl-1H-pyrazol-1-yl)-1-{2-methyl-4-[2-{2-[4-(methylsulfonyl)piperidin-1-yl]pyrimidin-5-yl}-4-(trifluoromethyl)phenyl]piperazin-1-yl}ethanone]"
3,10,"COc1ncc(-c2ccccc2N2CCN(C(=O)Cn3nc(C)c(Cl)c3C)CC2)cn1 [2-(4-Chloro-3,5-dimethyl-pyrazol-1-yl)-1-{4-[2-(2-methoxy-pyrimidin-5-yl)-phenyl]-piperazin-1-yl}-ethanone]"
4,7,"C[C@@H]1CN(c2ncc(-c3ccccc3N3CCN(C(=O)Cn4ccc5cccnc54)CC3)cn2)C[C@@H](C)O1 [1-(4-{2-[2-((2R,6R)-2,6-Dimethyl-morpholin-4-yl)-pyrimidin-5-yl]-phenyl}-piperazin-1-yl)-2-pyrrolo[2,3-b]pyridin-1-yl-ethanone]"
5,9,"Cc1cc(C)n(CC(=O)N2CCN(c3ccccc3-c3cnc(N4CCC(O)C4)nc3)CC2)n1 (stereo not shown) [2-(3,5-Dimethyl-pyrazol-1-yl)-1-(4-{2-[2-(3-hydroxy-pyrrolidin-1-yl)-pyrimidin-5-yl]-phenyl}-piperazin-1-yl)-ethanone]"
6,249,"CS(=O)(=O)c1ncc(-c2cc(F)ccc2N2CCN(C(=O)CN3Cc4ccccc4C3=O)CC2)cn1 [2-[2-(4-{4-fluoro-2-[2-(methylsulfonyl)pyrimidin-5-yl]phenyl}piperazin-1-yl)-2-oxoethyl]-2,3-dihydro-1H-isoindol-1-one]"
7,11,CC1CN(c2ccc(C(F)(F)F)cc2-c2cnc(N3CCC(S(C)(=O)=O)CC3)nc2)CCN1C(=O)CN1CCCCC1=O (stereo not shown) [1-(2-{2-methyl-4-[2-{2-[4-(methylsulfonyl)piperidin-1-yl]pyrimidin-5-yl}-4-(trifluoromethyl)phenyl]piperazin-1-yl}-2-oxoethyl)piperidin-2-one]
8,18,"COc1cc(NC(=O)c2cc(F)ccc2N2CCN(C(=O)Cn3ccc4cccnc43)[C@@H](C)C2)ccn1 [5-fluoro-N-(2-methoxypyridin-4-yl)-2-[(3S)-3-methyl-4-(1H-pyrrolo[2,3-b]pyridin-1-ylacetyl)piperazin-1-yl]benzamide]"
9,81,"Cc1cc(C)n(CC(=O)N2CCN(c3ccccc3-c3ccc4cc[nH]c4c3)CC2)n1 [2-(3,5-Dimethyl-pyrazol-1-yl)-1-{4-[2-(1H-indol-6-yl)-phenyl]-piperazin-1-yl}-ethanone]"
10,7,"CC1CN(c2ccc(C(F)(F)F)cc2-c2cnc(N3CCC(S(C)(=O)=O)CC3)nc2)CCN1C(=O)Cn1cnc2cccnc21 (stereo not shown) [2-(3H-imidazo[4,5-b]pyridin-3-yl)-1-{2-methyl-4-[2-{2-[4-(methylsulfonyl)piperidin-1-yl]pyrimidin-5-yl}-4-(trifluoromethyl)phenyl]piperazin-1-yl}ethanone]"
11,9,"CC1CN(c2ccc(F)cc2-c2cnc(N3CCC(S(C)(=O)=O)CC3)nc2)CCN1C(=O)Cn1c(=O)[nH]c2ccccc21 (stereo not shown) [1-{2-[4-(4-fluoro-2-{2-[4-(methylsulfonyl)piperidin-1-yl]pyrimidin-5-yl}phenyl)-2-methylpiperazin-1-yl]-2-oxoethyl}-1,3-dihydro-2H-benzimidazol-2-one]"
12,9,"CCNc1ncc(-c2ccccc2N2CCN(C(=O)Cn3ccc4cccnc43)CC2)cn1 [1-{4-[2-(2-Ethylamino-pyrimidin-5-yl)-phenyl]-piperazin-1-yl}-2-pyrrolo[2,3-b]pyridin-1-yl-ethanone]"
13,63,"CC1CN(c2ccccc2-c2cnc(S(C)(=O)=O)nc2)CCN1C(=O)Cn1c(=O)[nH]c2ccccc21 (stereo not shown) [1-[2-(2-methyl-4-{2-[2-(methylsulfonyl)pyrimidin-5-yl]phenyl}piperazin-1-yl)-2-oxoethyl]-1,3-dihydro-2H-benzimidazol-2-one]"
14,11,"CC1CN(c2ccccc2-c2cnc(N3CCC(S(C)(=O)=O)CC3)nc2)CCN1C(=O)Cn1c(=O)[nH]c2ccccc21 (stereo not shown) [1-{2-[2-methyl-4-(2-{2-[4-(methylsulfonyl)piperidin-1-yl]pyrimidin-5-yl}phenyl)piperazin-1-yl]-2-oxoethyl}-1,3-dihydro-2H-benzimidazol-2-one]"
15,8,"COc1cc(NC(=O)c2cc(F)ccc2N2CCN(C(=O)Cn3c(=O)[nH]c4ccccc43)[C@H](C)C2)ccn1 [5-fluoro-N-(2-methoxypyridin-4-yl)-2-{(3R)-3-methyl-4-[(2-oxo-2,3-dihydro-1H-benzimidazol-1-yl)acetyl]piperazin-1-yl}benzamide]"
16,488,"CS(=O)(=O)c1ncc(-c2cc(F)ccc2N2CCN(C(=O)Cn3cnc4cccnc43)CC2)cn1 [1-(4-{4-fluoro-2-[2-(methylsulfonyl)pyrimidin-5-yl]phenyl}piperazin-1-yl)-2-(3H-imidazo[4,5-b]pyridin-3-yl)ethanone]"

# The next lines start with the compound.
row,Structure (SMILES),IC50 [nM]
1,"O=C(Cn1ccc2ccncc21)N1CCN(c2ccc(F)cc2-c2cnc(N3CCOCC3)nc2)CC1 [1-(4-{4-fluoro-2-[2-(morpholin-4-yl)pyrimidin-5-yl]phenyl}piperazin-1-yl)-2-(1H-pyrrolo[2,3-c]pyridin-1-yl)ethanone]",13
2,"CN1CCN(c2ncc(-c3cc(F)ccc3N3CCN(C(=O)Cn4ccc5cccnc54)CC3)cn2)CC1 [1-(4-{4-fluoro-2-[2-(4-methylpiperazin-1-yl)pyrimidin-5-yl]phenyl}piperazin-1-yl)-2-(1H-pyrrolo[2,3-b]pyridin-1-yl)ethanone]",20
3,"Cc1cc(C)n(CC(=O)N2CCN(c3ccccc3-c3cnc(N4CCCC(F)(F)C4)nc3)CC2)n1 [1-(4-{2-[2-(3,3-Difluoro-piperidin-1-yl)-pyrimidin-5-yl]-phenyl}-piperazin-1-yl)-2-(3,5-dimethyl-pyrazol-1-yl)-ethanone]",9
4,"C[C@H]1CN(c2ccc(F)cc2C(=O)Nc2nc3c(s2)CN(C)CC3)CCN1C(=O)CN1CCCCC1=O [5-fluoro-2-{(3S)-3-methyl-4-[(2-oxopiperidin-1-yl)acetyl]piperazin-1-yl}-N-(5-methyl-4,5,6,7-tetrahydro[1,3]thiazolo[5,4-c]pyridin-2-yl)benzamide]",17
5,"COc1ncc(-c2cc(Cl)ccc2N2CCN(C(=O)Cn3nc(C)cc3C)CC2)cn1 [1-{4-[4-Chloro-2-(2-methoxy-pyrimidin-5-yl)-phenyl]-piperazin-1-yl}-2-(3,5-dimethyl-pyrazol-1-yl)-ethanone]",12
6,COc1cc(NC(=O)c2cc(F)ccc2N2CCN(C(=O)CN(C)C(=O)C(C)C)[C@@H](C)C2)ccn1 [5-fluoro-N-(2-methoxypyridin-4-yl)-2-{(3S)-3-methyl-4-[N-methyl-N-(2-methylpropanoyl)glycyl]piperazin-1-yl}benzamide],11
7,"COc1ncc(-c2cc(F)ccc2N2CCN(C(=O)Cn3nc(C)cc3C)CC2)cn1 [2-(3,5-Dimethyl-pyrazol-1-yl)-1-{4-[4-fluoro-2-(2-methoxy-pyrimidin-5-yl)-phenyl]-piperazin-1-yl}-ethanone]",14
8,"CNc1ncc(-c2cc(C(F)(F)F)ccc2N2CCN(C(=O)Cn3ccc4cccnc43)CC2)cn1 [1-{4-[2-(2-Methylamino-pyrimidin-5-yl)-4-trifluoromethyl-phenyl]-piperazin-1-yl}-2-pyrrolo[2,3-b]pyridin-1-yl-ethanone]",5
9,"Cc1cc(C)n(CC(=O)N2CCN(c3ccccc3-c3cnc(N4CCC(F)CC4)nc3)CC2)n1 [2-(3,5-Dimethyl-pyrazol-1-yl)-1-(4-{2-[2-(4-fluoro-piperidin-1-yl)-pyrimidin-5-yl]-phenyl}-piperazin-1-yl)-ethanone]",10
10,"Cc1cc(C)n(CC(=O)N2CCN(c3ccccc3-c3cnc(N4CCC5CCCCC5C4)nc3)CC2)n1 (stereo not shown) [2-(3,5-Dimethyl-pyrazol-1-yl)-1-(4-{2-[2-(octahydro-isoquinolin-2-yl)-pyrimidin-5-yl]-phenyl}-piperazin-1-yl)-ethanone]",21
11,"O=C(Cn1ccc2ccncc21)N1CCN(c2ccc(F)cc2-c2cnc(N3CCC(O)CC3)nc2)CC1 [1-(4-{4-fluoro-2-[2-(4-hydroxypiperidin-1-yl)pyrimidin-5-yl]phenyl}piperazin-1-yl)-2-(1H-pyrrolo[2,3-c]pyridin-1-yl)ethanone]",10
